The term inhibition denotes the relative decrease from the control value, in per cent.

The results in this text go back to patent US8455475B2 (Gruenenthal GmbH, priority 2009, dated 2013).

Assay [1] deals with T1, human B1R (bradykinin receptor 1) (Homo sapiens, UniProt P46663).
T1 construct: expressed in transfected cells; host or cells: CHO K1 cells
T1 sequence (P46663 1-353): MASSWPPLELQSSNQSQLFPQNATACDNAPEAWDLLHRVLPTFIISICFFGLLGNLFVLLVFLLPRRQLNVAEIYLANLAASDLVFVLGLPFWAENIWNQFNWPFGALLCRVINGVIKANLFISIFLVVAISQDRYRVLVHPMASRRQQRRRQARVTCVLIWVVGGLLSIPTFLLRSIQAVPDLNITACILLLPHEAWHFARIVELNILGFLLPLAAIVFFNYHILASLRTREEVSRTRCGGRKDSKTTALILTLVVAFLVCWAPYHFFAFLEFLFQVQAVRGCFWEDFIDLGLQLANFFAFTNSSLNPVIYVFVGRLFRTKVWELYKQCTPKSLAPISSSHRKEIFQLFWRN
The assay can be described thus: FLIPR Ca2+ assay (Fluo-4) on CHO K1 cells stably transfected with the human B1R gene (hB1R cells): % inhibition at 10 μM / IC50, agonist Lys-Des-Arg9-bradykinin. Format: cell-based. The following applies: CHO-K1, human B1R. How it is done: The agonistic or antagonistic action of substances can be quantified on the bradykinin receptor 1 (B1R) of the human and rat species with ectopically expressing cell lines (CHO K1 cells) and with the aid of a Ca^2+-sensitive dyestuff (Fluo-4) in a fluorescent imaging plate reader (FLIPR). The figure in % activation is based on the Ca^2+ signal after addition of Lys-Des-Arg^9-bradykinin (0.5 nM) or Des-Arg^9-bradykinin (100 nM). Antagonists lead to a suppression of the Ca^2+ inflow after addition of the agonist. % inhibition compared with the maximum achievable inhibition is stated.
The agonistic or antagonistic action of substances can be determined on the bradykinin receptor 1 (B1R) of the human and rat species with the following assay. In accordance with this assay, the Ca^2+ inflow through the channel is quantified with the aid of a Ca^2+-sensitive dyestuff (type Fluo-4, Molecular Probes Europe BV, Leiden, Holland) in a fluorescent imaging plate reader (FLIPR, Molecular Devices, Sunnyvale, USA).
Chinese hamster ovary cells (CHO K1 cells) transfected stably with the human B1R gene (hB1R cells) or the B1R gene of the rat (rB1R cells) are used. For functional studies, these cells are plated out on black 96-well plates with a clear base (BD Biosciences, Heidelberg, Germany or Greiner, Frickenhausen, Germany) in a density of 20,000-35,000 cells/well. The cells are left overnight at 37° C. and 5% CO2 in culture medium (hB1R cells: Nutrient Mixture Ham's F12, Gibco Invitrogen GmbH, Karlsruhe, Germany or DMEM, Sigma-Aldrich, Taufkirchen, Germany; rB1R cells: D-MEM/F12, Gibco Invitrogen GmbH, Karlsruhe, Germany) with 10 vol. % FBS (foetal bovine serum, Gibco Invitrogen GmbH, Karlsruhe, Germany or PAN Biotech GmbH, Aidenbach, Germany). On the following day, the cells are loaded for 60 min at 37° C. with 2.13 μM Fluo-4 (Molecular Probes Europe BV, Leiden Holland) in HBSS buffer (Hank's buffered saline solution, Gibco Invitrogen GmbH, Karlsruhe, Germany) with 2.5 mM probenecid (Sigma-Aldrich, Taufkirchen, Germany) and 10 mM HEPES (Sigma-Aldrich, Taufkirchen, Germany). The plates are then washed 2× with HBSS buffer, and HBSS buffer which additionally contains 0.1% BSA (bovine serum albumin; Sigma-Aldrich, Taufkirchen, Germany), 5.6 mM glucose and 0.05% gelatine (Merck KGaA, Darmstadt, Germany) is added. After a further incubation of 20 minutes at room temperature, the plates are inserted into the FLIPR for the Ca^2+ measurement. Alternatively, the plates are washed with buffer A (15 mM HEPES, 80 mM NaCl, 5 mM KCl, 1.2 mM CaCl2, 0.7 mM MgSO4, 2 g/l glucose, 2.5 mM probenecid), buffer A is added and the plates are loaded with 2.5 μM Fluo-4 and 0.025% Pluronic F127 (Sigma-Aldrich, Taufkirchen, Germany). Thereafter, the cells are washed 2× with buffer A and incubated for 30 minutes at room temperature with buffer A, which additionally contains 0.05% BSA and 0.05% gelatine, and thereafter inserted into the FLIPR for the Ca^2+ measurement. The Ca^2+-dependent fluorescence is measured here before and after addition of substances (λex=488 nm, λem=540 nm). Quantification is by measurement of the highest fluorescence intensity (FC, fluorescence counts) over time.
The FLIPR protocol consists of 2 additions of substance. Test substances (10 μM) are first pipetted on to the cells and the Ca^2+ inflow is compared with the control (hB1R: Lys-Des-Arg^9-bradykinin>=50 nM; rB1R: Des-Arg^9-bradykinin 10 μM). This gives the result in % activation based on the Ca^2+ signal after addition of Lys-Des-Arg^9-bradykinin (>=50 nM) or Des-Arg^9-bradykinin (10 μM). After incubation for 10-20 minutes, Lys-Des-Arg^9-bradykinin (hB1R) or Des-Arg^9-bradykinin (rB1R) in the concentration of the EC80 is applied and the inflow of Ca^2+ is likewise determined. Antagonists lead to a suppression of the Ca^2+ inflow. % inhibition compared with the maximum achievable inhibition is calculated.
For determination of the IC50 value, the substances are added in various concentrations. […]

Assay [2] concerns the target T2, rat B1R (bradykinin receptor 1) (Rattus norvegicus, UniProt P97583).
T2 construct: expressed in transfected cells; host or cells: CHO K1 cells
T2 sequence (P97583 1-337): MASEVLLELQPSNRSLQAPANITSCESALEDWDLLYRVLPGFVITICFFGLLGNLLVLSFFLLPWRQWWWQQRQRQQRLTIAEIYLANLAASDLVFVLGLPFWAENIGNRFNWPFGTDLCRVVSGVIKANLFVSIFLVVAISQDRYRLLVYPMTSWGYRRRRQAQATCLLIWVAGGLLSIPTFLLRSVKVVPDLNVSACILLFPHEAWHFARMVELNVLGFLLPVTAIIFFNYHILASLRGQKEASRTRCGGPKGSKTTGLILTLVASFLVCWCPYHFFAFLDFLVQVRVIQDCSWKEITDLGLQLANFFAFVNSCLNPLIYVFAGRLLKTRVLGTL
The assay can be described thus: FLIPR Ca2+ assay (Fluo-4) on CHO K1 cells stably transfected with the B1R gene of the rat (rB1R cells): % inhibition at 10 μM / IC50, agonist Des-Arg9-bradykinin. The format is cell-based. The following applies: CHO-K1, rat B1R. Summed up: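 Stably transfected CHO K1 cells loaded with Fluo-4 and read on FLIPR (λex 488, λem 540 nm; peak fluorescence). Test substance (10 μM) added first, then after 10–20 min the agonist at EC80; % inhibition versus maximum achievable inhibition. IC50 from several concentrations, n=2–3, N≥2.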

Turning to `CC1(C)CC(NS(=O)(=O)Cc2ccccc2C(F)(F)F)c2cc(C(=O)N3CCC4(CC3)CCN(c3ccncc3)CC4)ccc21` (stereo not shown) [IND_CC-256, N-[3,3-Dimethyl-6-(3-pyridin-4-yl-3,9-diazaspiro[5.5]undecane-9-carbonyl)-1,2-dihydro-inden-1-yl]-1-[2-(trifluoromethyl)-phenyl]-methanesulfonic acid amide], the inhibition at 10 µM was determined as 99% in assay [1] and 100% in assay [2].
Taken in the same sequence, the figures for `CC1(C)CC(NC(=O)c2c(F)cccc2Cl)c2cc(C(=O)N3CCC4(CC3)CCN(c3ccncc3)CC4)ccc21` (stereo not shown) [IND_CC-279, 2-Chloro-N-[3,3-dimethyl-6-(3-pyridin-4-yl-3,9-diazaspiro[5.5]undecane-9-carbonyl)-1,2-dihydro-inden-1-yl]-6-fluoro-benzamide] were 100% and 106%.
Taken in the same sequence, the figures for `CC1(C)CC(NC(=O)c2cccc(Cl)c2Cl)c2cc(C(=O)N3CCC4(CC3)CCN(c3ccncc3)CC4)ccc21` (stereo not shown) [IND_CC-283, 2,3-Dichloro-N-[3,3-dimethyl-6-(3-pyridin-4-yl-3,9-diazaspiro[5.5]undecane-9-carbonyl)-1,2-dihydro-inden-1-yl]-benzamide] were 96% and 107%.
Taken in the same sequence, the figures for `O=C(c1ccc2c(c1)C(N(C(=O)c1ccccc1Cl)C1CC1)CC2)N1CCC2(CC1)CCN(c1ccncc1)C2` (stereo not shown) [Ind_CC-119, 2-chloro-N-cyclopropyl-N-[6-(2-pyridin-4-yl-2,8-diazaspiro[4.5]decane-8-carbonyl)-2,3-dihydro-1H-inden-1-yl]-benzamide] were 99% and 104%.
For the compound `O=C(NC1CCc2ccc(C(=O)N3CCC4(CC3)CCN(c3ccc(C(F)(F)F)cc3)CC4)cc21)c1ccc(F)cc1Cl` (stereo not shown) [IND_CC-274, 2-Chloro-4-fluoro-N-[6-[9-[4-(trifluoromethyl)-phenyl]-3,9-diazaspiro[5.5]undecane-3-carbonyl]-2,3-dihydro-1H-inden-1-yl]-benzamide], the results for the inhibition at 10 µM in assay [1] and in assay [2] were 8% and 102%, respectively.
Take `O=C(N[C@@H]1CCCc2cc(F)c(C(=O)N3CCC4(CC3)CCN(c3ccncc3)CC4)cc21)c1ccccc1Cl` [Example H-88]: the inhibition at 10 µM in assay [1] was 100%; in assay [2] it was 104%.
Taken in the same sequence, the figures for `O=C(c1ccc2c(c1)[C@H](NS(=O)(=O)Cc1ccccc1Cl)CC2)N1CCC2(CCN(c3ccncc3)CC2)C1` [Example H-150, 1-(2-Chlorophenyl)-N-[(1R)-6-(8-pyridin-4-yl-3,8-diazaspiro[4.5]decane-3-carbonyl)-2,3-dihydro-1H-inden-1-yl]-methanesulfonic acid amide] were 97% and 100%.
In the case of `COc1cc(C)c(C(=O)NC2CCc3ccc(C(=O)N4CCC5(CCN(Cc6ccncc6)CC5)CC4)cc32)c(C)c1` (stereo not shown) [Ind_CC-092, 4-methoxy-2,6-dimethyl-N-[6-[9-(pyridin-4-yl-methyl)-3,9-diazaspiro[5.5]undecane-3-carbonyl]-2,3-dihydro-1H-inden-1-yl]-benzamide], the inhibition at 10 µM in assay [1] came out at 78%; in assay [2], 101%.
The matching figures for `O=C(c1ccc2c(c1)[C@@H](N1Cc3cccc(Cl)c3C1=O)CCC2)N1CCC2(CCN(c3ccncc3)CC2)C1` [Example H-15, 7-chloro-2-[(1S)-7-(8-pyridin-4-yl-3,8-diazaspiro[4.5]decane-3-carbonyl)-1,2,3,4-tetrahydro-naphthalen-1-yl]-2,3-dihydro-isoindol-1-one]: 59% and 11%.
The matching figures for `O=C(NC1CCc2ccc(C(=O)N3CCC4(CCN(c5ccncc5)CC4)C3)cc21)c1ccccc1C(F)(F)F` (stereo not shown) [Ind_CC-081, N-[6-(8-pyridin-4-yl-3,8-diazaspiro[4.5]decane-3-carbonyl)-2,3-dihydro-1H-inden-1-yl]-2-(trifluoromethyl)-benzamide]: 99% and 101%.
As for `N#Cc1ccc(CN2CCC3(CC2)CCN(C(=O)c2ccc4c(c2)C(NC(=O)c2cc(Cl)ccc2F)CC4)C3)cc1` (stereo not shown) [IND_CC-650, 5-Chloro-N-[6-[8-[(4-cyano-phenyl)-methyl]-2,8-diazaspiro[4.5]decane-2-carbonyl]-2,3-dihydro-1H-inden-1-yl]-2-fluoro-benzamide], in assay [2], the inhibition at 10 µM worked out at 54%.
On the same count and under the same terms, the same measure for `O=C(NC1CCc2ccc(C(=O)N3CCC4(CCN(Cc5ccc6nccnc6c5)CC4)CC3)cc21)c1cc(Cl)ccc1F` (stereo not shown) [IND_CC-678, 5-Chloro-2-fluoro-N-[6-[9-(quinoxalin-6-yl-methyl)-3,9-diazaspiro[5.5]undecane-3-carbonyl]-2,3-dihydro-1H-inden-1-yl]-benzamide]: 82%; for `Cc1cccc(C(=O)N(C)C2CCc3ccc(C(=O)N4CCC5(CC4)CCN(c4ccncc4)CC5)cc32)c1C` (stereo not shown) [IND_CC-387, N,2,3-Trimethyl-N-[6-(9-pyridin-4-yl-3,9-diazaspiro[5.5]undecane-3-carbonyl)-2,3-dihydro-1H-inden-1-yl]-benzamide]: 104%.
On the same count and under the same terms, the same measure for `CCC(CC)CN1CCC2(CC1)CCN(C(=O)c1ccc3c(c1)C(NC(=O)c1cc(C(F)(F)F)ccc1Cl)CC3)CC2` (stereo not shown) [IND_CC-699, 2-Chloro-N-[6-[9-(2-ethyl-butyl)-3,9-diazaspiro[5.5]undecane-3-carbonyl]-2,3-dihydro-1H-inden-1-yl]-5-(trifluoromethyl)-benzamide]: 75%; for `O=C(NC1CCc2ccc(C(=O)N3CCC4(CC3)CCN(C(=O)c3ccc(F)cc3Cl)CC4)cc21)c1ccccc1Cl` (stereo not shown) [IND_CC-599, 2-Chloro-N-[6-[9-(2-chloro-4-fluoro-benzoyl)-3,9-diazaspiro[5.5]undecane-3-carbonyl]-2,3-dihydro-1H-inden-1-yl]-benzamide]: 96%.
